Test results from patent publication US20260152751A1, “INTERFERING RNA FOR INHIBITING JAK1 GENE EXPRESSION AND USE THEREOF” (Jenkem Technology Co., Ltd. (BEIJING), priority 2024, published 2026).
[Ψ] = pseudouridine; d = 2'-deoxy (DNA); r = 2'-OH (RNA)

Assays:
JAK1 gene [1] = assay: siRNA screening: qPCR of JAK1 relative expression in transfected 293T cells; type: cell-based, human; details: siRNA 50 nM, 48 h after transfection, GAPDH reference, siNC = 100.00
Description: (§1) One day prior to transfection, 293T cells were seeded into a 24-well cell culture plate at 1×10^5 cells/well, and the culture medium was 500 μL of DMEM containing 10% FBS and 1% penicillin-streptomycin. Three replicate wells were made for each group. The culture plate was placed in an incubator with 5% CO2 at 37° C. for 24 h to allow the cells to adhere to the wall. On the day of transfection, the culture medium was changed to 450 μL of DMEM culture medium without antibiotics (containing 10% FBS). The siRNAs were diluted with 25 μL of Opti-MEM culture medium, and the control group was siNC at the same concentration; a Lipofectamine™RNAiMAX transfection reagent (Lip) was diluted with another 25 μL of Opti-MEM culture medium, and the mixture was left to stand at room temperature for 5 min; and the two dilutions were uniformly mixed and left to stand at room temperature for 5 min. 50 μL of the mixed solution described above was added to each well to obtain a final transfection volume of 500 μL, and the working concentration of the siRNA was 50 nM. After the cells were further cultured in an incubator with 5% CO2 at 37° C. for 48 h, the total RNA of the cells was extracted.
RNA was extracted using Eastep™ Super total RNA extraction kit, with the detailed procedures as follows:
1) 300 μL of RNA lysis solution and 300 μL of RNA diluent were added into each well of the 24-well cell culture plate, and the mixture was uniformly mixed and subsequently transferred to a 1.5 mL centrifuge tube. The mixture was centrifuged at 14000 g for 10 min, and the supernatant was carefully pipetted into a new 1.5 mL centrifuge tube.
2) A 0.5-fold volume of absolute ethanol was added, and the mixture was uniformly mixed by allowing the tube to be repeatedly upside down 15-20 times. Subsequently, the mixture was transferred to a centrifuge column and centrifuged at 12000 g for 1 min. The filtrate was discarded.
3) 600 μL of RNA wash buffer was added, and the mixture was centrifuged at 12000 g for 1 min. The filtrate was discarded.
4) 50 μL of DNase I incubation buffer was added, followed by DNA digestion at room temperature for 15 min.
5) 600 μL of RNA wash buffer was added, the mixture was centrifuged at 12000 g for 1 min, and the filtrate was discarded. This procedure was repeated once. Subsequently, the mixture was centrifuged at 14000 g for 2 min to remove the residual RNA wash buffer, and then the centrifuge column was placed in a collection tube.
6) A proper amount of RNase-free H2O was added, and the mixture was left to stand for 15 min at room temperature, followed by centrifugation at 14000 g for 1 min. The RNA quality and concentration were detected using NanoDrop™. The extracted RNA was incubated at 70° C. for 5 min and immediately placed in an ice bath for 5 min for later use.
(§2) 1) The RNA was reverse-transcribed into a cDNA template using the All-in-One First-Strand Synthesis MasterMix (LABLEAD, Cat. No.: F0202) kit. The reaction system was established according to Table 2, where all components were mixed uniformly and centrifuged to collect the liquid at the bottom of a tube, and the PCR program was run according to the settings of 37° C. for 2 min, 55° C. for 15 min, and 85° C. for 5 min, thereby giving the cDNA template.
(§3) 2) The gene expression level was detected using the Taq SYBR® Green qPCR Premix (LABLEAD, Cat. No.: R0202) kit, and the qPCR system was established according to Table 3. All components were mixed uniformly and centrifuged to collect the liquid at the bottom of a tube, and the PCR program was run according to the following settings: • Step1: 95° C. 30 s; • Step2: 95° C. 10 s; • Step3: 60° C. 30 s+Plate Read; • Step4: Go to Step2, 40 times; • Step5: Melt Curve 65 to 95° C., increment 0.5° C., for 5 s+Plate Read.
(§4) GAPDH was used as an endogenous reference to detect the relative expression level of JAK1 gene, and the sequences of the primers used are as follows: […]

JAK1 gene [2] = assay: qPCR of JAK1 expression in HaCaT cells transfected with modified siJAK1; type: cell-based, human; details: siRNA 50 nM, 48 h after transfection, JAK1 by qPCR, siNC = 100.00
Description: as §1, §2, §3, §4
According to the method described in Example 2, human keratinocyte HaCaT cells were transfected with the modified siJAK1 at an siRNA working concentration of 50 nM. The expression level of JAK1 was detected by qPCR 48 h after the transfection. The controls included siNC and unmodified siJAK1 at the same concentration.

Row | Substance | Relative expression level of JAK1, Mean value (Mean) (JAK1 gene [1]) | Relative expression level, Mean value (Mean) (JAK1 gene [2])
1 | siJAK1-4359: siRNA targeting JAK1; sense strand SEQ ID NO: 23, antisense strand SEQ ID NO: 37 (sense CACAUUAAUCAUAGAUAAAGA; antisense UUUAUCUAUGAUUAAUGUGCC; listed as RNA, chemistry not fully specified) | 31.11 | 
2 | siJAK1-3630: siRNA targeting JAK1; sense strand SEQ ID NO: 21 dTdT, antisense strand SEQ ID NO: 35 dTdT (sense GAAUGUUUAAUGCAAUCUA; antisense UAGAUUGCAUUAAACAUUC; listed as RNA, chemistry not fully specified) | 25.58 | 
3 | siNC: non-targeting control sequence; sense strand SEQ ID NO: 43, antisense strand SEQ ID NO: 44 (sense UUCUCCGAACGUGUCACGUTT; antisense ACGUGACACGUUCGGAGAATT; Bought control siRNA with 3' TT overhangs, chemistry not given here, further chemistry not given here) [reference compound] | 100.00 | 100.00
4 | siJAK1-3283-m10: pseudouridine-modified siJAK1-3283; sense strand SEQ ID NO: 50, antisense strand SEQ ID NO: 54 (sense AGAACAUUGUGAAGUACAATT; antisense UUGUACUUCACAAUGUUCUTT; sense: sugars from the 5' end r19 d2, [Ψ] at 7, 8, 10, 15, backbone not given here; antisense: sugars from the 5' end r19 d2, [Ψ] at 1, 2, 4, 7, 8, 14, 16, 17, 19, backbone not given here) |  | 15.89
5 | siJAK1-3283: siRNA targeting JAK1; sense strand SEQ ID NO: 20 dTdT, antisense strand SEQ ID NO: 34 dTdT (sense AGAACAUUGUGAAGUACAA; antisense UUGUACUUCACAAUGUUCU; listed as RNA, chemistry not fully specified) | 16.41 | 14.73
6 | siJAK1-474: siRNA targeting JAK1; sense strand SEQ ID NO: 15 dTdT, antisense strand SEQ ID NO: 29 dTdT (sense GAAUAAAUGCAGUAUCUAA; antisense UUAGAUACUGCAUUUAUUC; listed as RNA, chemistry not fully specified) | 20.24 | 
7 | siJAK1-826: siRNA targeting JAK1; sense strand SEQ ID NO: 16 dTdT, antisense strand SEQ ID NO: 30 dTdT (sense GGCAUGGAACCAACGACAA; antisense UUGUCGUUGGUUCCAUGCC; listed as RNA, chemistry not fully specified) | 14.18 | 13.33
8 | siJAK1-826-m4: pseudouridine-modified siJAK1-826; sense strand SEQ ID NO: 49, antisense strand SEQ ID NO: 53 (sense GGCAUGGAACCAACGACAAUU; antisense UUGUCGUUGGUUCCAUGCCTT; sense: sugars from the 5' end r19 d2, [Ψ] at 5, backbone and T or U not given here; antisense: sugars from the 5' end r19 d2, [Ψ] at 1, 2, 4, 7, 8, 11, 12, 16, backbone not given here) |  | 13.55
9 | siJAK1-4096: siRNA targeting JAK1; sense strand SEQ ID NO: 22 dTdT, antisense strand SEQ ID NO: 36 dTdT (sense GGCACACUGUAGUGCUUAA; antisense UUAAGCACUACAGUGUGCC; listed as RNA, chemistry not fully specified) | 38.56 | 
10 | siJAK1-5026: siRNA targeting JAK1; sense strand SEQ ID NO: 27 dTdT, antisense strand SEQ ID NO: 41 dTdT (sense GAUUCAAUGUGAACGAUUA; antisense UAAUCGUUCACAUUGAAUC; listed as RNA, chemistry not fully specified) | 32.40 | 
11 | siJAK1-5034: siRNA targeting JAK1; sense strand SEQ ID NO: 28, antisense strand SEQ ID NO: 42 (sense GAACGAUUACGGUCUUUAUGA; antisense AUAAAGACCGUAAUCGUUCAC; listed as RNA, chemistry not fully specified) | 35.89 | 
12 | siJAK1-4627: siRNA targeting JAK1; sense strand SEQ ID NO: 26 dTdT, antisense strand SEQ ID NO: 40 dTdT (sense GCAUGUUAAUUCUCAAGAA; antisense UUCUUGAGAAUUAACAUGC; listed as RNA, chemistry not fully specified) | 38.64 | 
13 | siJAK1-4389: siRNA targeting JAK1; sense strand SEQ ID NO: 24, antisense strand SEQ ID NO: 38 (sense GGACUUAGCCCUCAAAUUUCA; antisense AAAUUUGAGGGCUAAGUCCAU; listed as RNA, chemistry not fully specified) | 27.56 | 
14 | siJAK1-4410: siRNA targeting JAK1; sense strand SEQ ID NO: 25 dTdT, antisense strand SEQ ID NO: 39 dTdT (sense CAGUAUCUAUACAGUACUA; antisense UAGUACUGUAUAGAUACUG; listed as RNA, chemistry not fully specified) | 24.41 | 
15 | siJAK1-1131: siRNA targeting JAK1; sense strand SEQ ID NO: 17, antisense strand SEQ ID NO: 31 (sense GCGAUAUAUUCCAGAAACAUU; antisense UGUUUCUGGAAUAUAUCGCUU; listed as RNA, chemistry not fully specified) | 23.55 | 
16 | siJAK1-2714: siRNA targeting JAK1; sense strand SEQ ID NO: 19 dTdT, antisense strand SEQ ID NO: 33 dTdT (sense GGUGCUGUCUAGGCAAGAA; antisense UUCUUGCCUAGACAGCACC; listed as RNA, chemistry not fully specified) | 19.12 | 
17 | siJAK1-2200: siRNA targeting JAK1; sense strand SEQ ID NO: 18 dTdT, antisense strand SEQ ID NO: 32 dTdT (sense GUUUCGAUCGGAUCCUCAA; antisense UUGAGGAUCCGAUCGAAAC; listed as RNA, chemistry not fully specified) | 34.77 | 
